Laboratory results published in patent publication US20190030018A1 (Celgene Corporation, priority 2017, published 2019).

System: 563 solid tumor cell lines
Experiment: Luminex assay in PRISM, 5 days treatment (AUC)
Type: cell-based
Set-up: AUC: scale not given here
Description: The AUC values provided in Table 80 below were calculated based on the Median Fluorescent Intensity values, the primary read out of the Luminex assay in PRISM. The following parameters were used in this assay: • 8 point dose was used in triplicate • max concentration of 10 μM was used with serial 4-fold dilutions (low of […]) • 563 adherent cell lines in 23 pools. • treatment duration was 5 days.

SMILES: O=C1CCC(N2Cc3cc(CNC(=O)C(F)(F)c4ccc(Cl)cc4)ccc3C2=O)C(=O)N1 (stereo not shown) [Compound 1, 2-(4-chlorophenyl)-N-((2-(2,6-dioxopiperidin-3-yl)-1-oxoisoindolin-5-yl)methyl)-2,2-difluoroacetamide]
- AUC (SIMA_AUTONOMIC_GANGLIA): 0.764
- AUC (SJSA1_BONE): 0.808
- AUC (SKES1_BONE): 0.984
- AUC (SKHEP1_LIVER): 0.817
- AUC (SKLU1_LUNG): 0.644
- AUC (SKMEL2_SKIN): 0.910
- AUC (SKMEL3_SKIN): 0.848
- AUC (SKMEL5_SKIN): 0.831
- AUC (SKMEL24_SKIN): 0.862
- AUC (SKMEL30_SKIN): 0.795
- AUC (SKMES1_LUNG): 0.902
- AUC (SKNAS_AUTONOMIC_GANGLIA): 0.832
- AUC (SKNBE2_AUTONOMIC_GANGLIA): 0.879
- AUC (SKNEP1_BONE): 0.523
- AUC (SKNFI_AUTONOMIC_GANGLIA): 0.852
- AUC (SKOV3_OVARY): 0.850
- AUC (SKPNDW_BONE): 0.861
- AUC (SKUT1_SOFT_TISSUE): 0.845
- AUC (SNB75_CENTRAL_NERVOUS_SYSTEM): 0.768
- AUC (SNGM_ENDOMETRIUM): 0.794
- AUC (SNU46_UPPER_AERODIGESTIVE_TRACT): 0.925
- AUC (SNU61_LARGE_INTESTINE): 0.881
- AUC (SNU81_LARGE_INTESTINE): 0.400
- AUC (SNU182_LIVER): 0.179
- AUC (SNU216_STOMACH): 0.521
- AUC (SNU245_BILIARY_TRACT): 0.853
- AUC (SNU308_BILIARY_TRACT): 0.873
- AUC (SNU398_LIVER): 0.951
- AUC (SNU407_LARGE_INTESTINE): 0.284
- AUC (SNU410_PANCREAS): 0.994
- AUC (SNU423_LIVER): 0.697
- AUC (SNU449_LIVER): 0.971
- AUC (SNU668_STOMACH): 0.423
- AUC (SNU685_ENDOMETRIUM): 0.812
- AUC (SNU719_STOMACH): 0.869
- AUC (SNU738_CENTRAL_NERVOUS_SYSTEM): 0.826
- AUC (SNU840_OVARY): 0.848
- AUC (SNU869_BILIARY_TRACT): 0.782
- AUC (SNU878_LIVER): 0.890
- AUC (SNU886_LIVER): 0.656
- AUC (SNU1041_UPPER_AERODIGESTIVE_TRACT): 0.806
- AUC (SNU1066_UPPER_AERODIGESTIVE_TRACT): 0.860
- AUC (SNU1077_ENDOMETRIUM): 0.759
- AUC (SNU1105_CENTRAL_NERVOUS_SYSTEM): 0.620
- AUC (SNU1196_BILIARY_TRACT): 0.653
- AUC (SNU1214_UPPER_AERODIGESTIVE_TRACT): 0.826
- AUC (SNUC2A_LARGE_INTESTINE): 0.608
- AUC (SNUC4_LARGE_INTESTINE): 0.290
- AUC (SQ1_LUNG): 0.838
- AUC (SU8686_PANCREAS): 0.848
- AUC (SUIT2_PANCREAS): 0.856
- AUC (SW780_URINARY_TRACT): 0.986
- AUC (SW837_LARGE_INTESTINE): 0.995
- AUC (SW948_LARGE_INTESTINE): 0.766
- AUC (SW1088_CENTRAL_NERVOUS_SYSTEM): 0.835
- AUC (SW1116_LARGE_INTESTINE): 0.879
- AUC (SW1271_LUNG): 0.718
- AUC (SW1573_LUNG): 0.894
- AUC (SW1710_URINARY_TRACT): 0.835
- AUC (SW1990_PANCREAS): 0.874
- AUC (T3M10_LUNG): 0.951
- AUC (T24_URINARY_TRACT): 0.906
- AUC (T47D_BREAST): 0.698
- AUC (T98G_CENTRAL_NERVOUS_SYSTEM): 0.830
- AUC (TC32_BONE): 0.681
- AUC (TCCPAN2_PANCREAS): 0.905
- AUC (TE1_OESOPHAGUS): 0.875
- AUC (TE5_OESOPHAGUS): 0.797
- AUC (TE6_OESOPHAGUS): 0.864
- AUC (TE8_OESOPHAGUS): 0.802
- AUC (TE9_OESOPHAGUS): 0.911
- AUC (TE10_OESOPHAGUS): 0.872
- AUC (TE11_OESOPHAGUS): 0.870
- AUC (TE14_OESOPHAGUS): 0.898
- AUC (TEN_ENDOMETRIUM): 0.815
- AUC (TM31_CENTRAL_NERVOUS_SYSTEM): 0.424
- AUC (TOV21G_OVARY): 0.864
- AUC (TOV112D_OVARY): 0.871
- AUC (TT2609C02_THYROID): 0.251
- AUC (TTC709_SOFT_TISSUE): 0.520
- AUC (TT_OESOPHAGUS): 0.859
- AUC (TT_THYROID): 0.179
- AUC (TUHR4TKB_KIDNEY): 0.265
- AUC (U2OS_BONE): 0.862
- AUC (U87MG_CENTRAL_NERVOUS_SYSTEM): 0.724
- AUC (U118MG_CENTRAL_NERVOUS_SYSTEM): 0.871
- AUC (U251MG_CENTRAL_NERVOUS_SYSTEM): 0.806
- AUC (UACC62_SKIN): 0.837
- AUC (UACC257_SKIN): 0.863
- AUC (UBLC1_URINARY_TRACT): 0.875
- AUC (UO31_KIDNEY): 0.710
- AUC (VMRCRCW_KIDNEY): 0.345
- AUC (VMRCRCZ_KIDNEY): 0.969
- AUC (WM88_SKIN): 0.802
- AUC (WM793_SKIN): 0.866
- AUC (WM983B_SKIN): 0.861
- AUC (WM1799_SKIN): 0.101
- AUC (WM2664_SKIN): 0.578
- AUC (X8MGBA_CENTRAL_NERVOUS_SYSTEM): 0.805
- AUC (X42MGBA_CENTRAL_NERVOUS_SYSTEM): 0.845
- AUC (X253JBV_URINARY_TRACT): 0.966
- AUC (X253J_URINARY_TRACT): 0.905
- AUC (X647V_URINARY_TRACT): 0.284
- AUC (X769P_KIDNEY): 0.463
- AUC (X786O_KIDNEY): 0.853
- AUC (X5637_URINARY_TRACT): 0.624
- AUC (X8305C_THYROID): 0.849
- AUC (X8505C_THYROID): 0.558
- AUC (X2313287_STOMACH): 0.254
- AUC (YAPC_PANCREAS): 0.719
- AUC (YD8_UPPER_AERODIGESTIVE_TRACT): 0.501
- AUC (YD10B_UPPER_AERODIGESTIVE_TRACT): 0.903
- AUC (YD38_UPPER_AERODIGESTIVE_TRACT): 0.877
- AUC (YKG1_CENTRAL_NERVOUS_SYSTEM): 0.936
- AUC (ZR751_BREAST): 0.853
